Measurements reported in patent US11690902B2 (priority 2018, dated 2023).
“Also recorded” adds a separate entry of the source.

How the values were obtained:
[1] = system: human PBMCs of individuals naturally exposed to C. burnetii; format: cell-based
[2] = system: splenocytes from tgHLA-DR3 mice; conditions: in vivo; for # of mice responding: mouse
DRB1*0301 = target: T1, DRB1*0301 (Homo sapiens, UniProt P01903+P01911, A100K/A102G/A103R/A169T/F55Y/I96L/K41T/L162R/M171V/P40S/Q125H/Q178H/Q39Y/R42S/S66N/T106N/T262R/W38E/Y61H); test: HLA class II competition binding assay, DRB1*0301; conditions: peptides immunogenic in tgHLA-DR3 mice
T1 construct: purchased Benaroya Institute, Seattle, Wash

## AIYFIGWYANLAHIKLGIS [p9]
[1]
  Recognition of HLA class II peptide by any subject: not recognized by any subject

## LAQYRELEAFSQFAS [p5]
[1]
  Human immunoreactive in at least one IGRA+ donor (category): at least one IGRA + donor

## TGEIVKMINQAKQSIYVQG [p32]
[1]
  Human immunoreactive in at least one IGRA+ donor (category): at least one IGRA + donor
[2]
  SFU, Mouse 1/3: 64
  SFU, Mouse 2/3: 70
  SFU, Mouse 3/3: 28
  SI (stimulation index), Mouse 1/3: 3.82
  SI (stimulation index), Mouse 2/3: 4.62
  SI (stimulation index), Mouse 3/3: 2.11
  # of mice responding: 2

## DGRLEQLNSQNQQLQ [p33]
[1]
  Donors recognizing peptides recognized only within group C: single
  Donors recognizing peptides recognized solely by past asymptomatic subjects: 1/33
  Human immunoreactive in at least one IGRA+ donor (category): at least one IGRA + donor

## FTFRSQDSRRVQEW [p13]
[1]
  Donors recognizing peptides recognized solely by past asymptomatic subjects: 1/33
  Human immunoreactive in at least one IGRA+ donor (category): at least one IGRA + donor

## IARYFMVNISQLIGEE [p21]
[1]
  Number of IGRA+ subjects recognizing the peptide: 8/56
  Number of IGRA− subjects recognizing the peptide: 3/21
  Proportion of IGRA+ donors with IFNγ recall response to the peptide, SI cutoff of 2: 14.3%
  Recall response frequency in IGRA− donors: 14.3%

## QNAFQLQETIVSTEN [p40]
[1]
  Recognition of HLA class II peptide by any subject: not recognized by any subject

## SDMWQALLAGKSGVK [p25]
[1]
  Donors recognizing peptides recognized solely by past asymptomatic subjects: 3/33
  Human immunoreactive in at least one IGRA+ donor (category): at least one IGRA + donor

## EAVYKGFTPLKAEDIAEA [p19]
[1]
  Highly antigenic / highly reactive peptide in the human cohort: highly antigenic

## LSSIIHKLTSFSKTEA [p38]
[1]
  Highly antigenic / highly reactive peptide in the human cohort: highly antigenic

## AENVLIIHNKTLAHRYLA [p31]
[1]
  Highly antigenic / highly reactive peptide in the human cohort: highly reactive
[2]
  SFU, Mouse 1/3: 0
  SFU, Mouse 2/3: 14
  SFU, Mouse 3/3: 84
  SI (stimulation index), Mouse 1/3: 0.88
  SI (stimulation index), Mouse 2/3: 1.72
  SI (stimulation index), Mouse 3/3: 4.32
  # of mice responding: 1

## MMEHLQNITNLVSTGRQGA [p15]
[1]
  Highly antigenic / highly reactive peptide in the human cohort: highly antigenic

## SHEVLHAMSRGVEVLA [p6]
[1]
  Donors recognizing peptides recognized only within group C: multiple donors

## IKGWQEALTRMKPGAIWEI [p8]
[1]
  Human immunoreactive in at least one IGRA+ donor (category): at least one IGRA + donor

## RLGFMSFFTKAVVEALKRF [p22]
[1]
  Highly antigenic / highly reactive peptide in the human cohort: highly reactive; also recorded: highly antigenic

## NAGIIRNKLKIQATIN [p43]
[1]
  Donors recognizing peptides recognized solely by past asymptomatic subjects: 3/33
[2]
  SFU, Mouse 1/3: 135
  SFU, Mouse 2/3: 65
  SFU, Mouse 3/3: 116
  SI (stimulation index), Mouse 1/3: 4.88
  SI (stimulation index), Mouse 2/3: 3.04
  SI (stimulation index), Mouse 3/3: 4.48
  # of mice responding: 3

## TPTFVIGNKALTKFGF [p2]
[1]
  Highly antigenic / highly reactive peptide in the human cohort: highly reactive
[2]
  SFU, Mouse 1/3: 120
  SFU, Mouse 2/3: 141
  SFU, Mouse 3/3: 18
  SI (stimulation index), Mouse 1/3: 6.63
  SI (stimulation index), Mouse 2/3: 8.28
  SI (stimulation index), Mouse 3/3: 1.53
  # of mice responding: 2

## VAKLRGDLSSIIHKL [p37]
[1]
  Highly antigenic / highly reactive peptide in the human cohort: highly antigenic

## PDYVLNAVNHIRYKP [p14]
[1]
  Highly antigenic / highly reactive peptide in the human cohort: highly reactive; also recorded: highly antigenic
[2]
  SFU, Mouse 1/3: 157
  SFU, Mouse 2/3: 371
  SFU, Mouse 3/3: 11
  SI (stimulation index), Mouse 1/3: 7.94
  SI (stimulation index), Mouse 2/3: 20.21
  SI (stimulation index), Mouse 3/3: 1.42
  # of mice responding: 2

## IDHLQQMTRQQVAMQTHK [p36]
[1]
  Human immunoreactive in at least one IGRA+ donor (category): at least one IGRA + donor
[2]
  SFU, Mouse 1/3: 52
  SFU, Mouse 2/3: 55
  SFU, Mouse 3/3: 0
  SI (stimulation index), Mouse 1/3: 3.44
  SI (stimulation index), Mouse 2/3: 3.86
  SI (stimulation index), Mouse 3/3: 0.86
  # of mice responding: 2
DRB1*0301
  Binding to DRB1*0301 in vitro: all except one (p36) also showed binding

## KDDILEAVANMSVMDV [p3]
[1]
  Donors recognizing peptides recognized only within group C: single
  Human immunoreactive in at least one IGRA+ donor (category): at least one IGRA + donor

## VFNITLQKVMAPELPVL [p35]
[1]
  Recognition of HLA class II peptide by any subject: not recognized by any subject

## LKPFHFISSPTRDLQIA [p16]
[1]
  Highly antigenic / highly reactive peptide in the human cohort: highly reactive
  Human immunoreactive in at least one IGRA+ donor (category): at least one IGRA + donor
[2]
  SFU, Mouse 1/3: 180
  SFU, Mouse 2/3: 27
  SFU, Mouse 3/3: 19
  SI (stimulation index), Mouse 1/3: 8.94
  SI (stimulation index), Mouse 2/3: 2.05
  SI (stimulation index), Mouse 3/3: 1.94
  # of mice responding: 1

## GLSWLTILKKRNNYRDSFN [p44]
[1]
  Human immunoreactive in at least one IGRA+ donor (category): at least one IGRA + donor

## VPGYRNASSKRFVAP [p46]
[1]
  Highly antigenic / highly reactive peptide in the human cohort: highly antigenic

## SRAFLTANKNKPGVKT [p7]
[1]
  Human immunoreactive in at least one IGRA+ donor (category): at least one IGRA + donor

## ISLLVFKNSHRVQLWAK [p28]
[1]
  Donors recognizing peptides recognized solely by past asymptomatic subjects: 1/33
  Human immunoreactive in at least one IGRA+ donor (category): at least one IGRA + donor
[2]
  SFU, Mouse 1/3: 63
  SFU, Mouse 2/3: 54
  SFU, Mouse 3/3: 41
  SI (stimulation index), Mouse 1/3: 3.76
  SI (stimulation index), Mouse 2/3: 3.79
  SI (stimulation index), Mouse 3/3: 2.63
  # of mice responding: 2

## EHTIVVNASASEAAALQ [p10]
[1]
  Donors recognizing peptides recognized only within group C: multiple donors
  Human immunoreactive in at least one IGRA+ donor (category): at least one IGRA + donor
[2]
  SFU, Mouse 1/3: 256
  SFU, Mouse 2/3: 82
  SFU, Mouse 3/3: 43
  SI (stimulation index), Mouse 1/3: 5.80
  SI (stimulation index), Mouse 2/3: 4.51
  SI (stimulation index), Mouse 3/3: 2.00
  # of mice responding: 2

## SEQITLQTAEKVGLNVA [p1]
[1]
  Donors recognizing peptides recognized only within group C: multiple donors
  Human immunoreactive in at least one IGRA+ donor (category): at least one IGRA + donor

## QGHIINIGSISSHQV [p18]
[1]
  Highly antigenic / highly reactive peptide in the human cohort: highly antigenic

## REAVLFLVTIKELLEDP [p23]
[1]
  Highly antigenic / highly reactive peptide in the human cohort: highly antigenic
[2]
  SFU, Mouse 1/3: 69
  SFU, Mouse 2/3: 21
  SFU, Mouse 3/3: 63
  SI (stimulation index), Mouse 1/3: 2.30
  SI (stimulation index), Mouse 2/3: 1.89
  SI (stimulation index), Mouse 3/3: 2.47
  # of mice responding: 2

## DHAYKLAVSSTKSMT [p42]
[1]
  Donors recognizing peptides recognized solely by past asymptomatic subjects: 3/33

## PITKKQLKTMSNYEVIAK [p11]
[1]
  Recognition of HLA class II peptide by any subject: not recognized by any subject

## DQRITQLKNLNSNNSDSSNDN [p49]
[1]
  Recognition of HLA class II peptide by any subject: not recognized by any subject

## VARVSRLKDNFVVLEISKGTEITVQ [p29]
[1]
  Donors recognizing peptides recognized solely by past asymptomatic subjects: 1/33
  Human immunoreactive in at least one IGRA+ donor (category): at least one IGRA + donor

## QELEVAQNKAMSDFM [p39]
[1]
  Human immunoreactive in at least one IGRA+ donor (category): at least one IGRA + donor

## LKDVVALRNQAQTAK [p41]
[1]
  Human immunoreactive in at least one IGRA+ donor (category): at least one IGRA + donor
[2]
  SFU, Mouse 1/3: 87
  SFU, Mouse 2/3: 30
  SFU, Mouse 3/3: 0
  SI (stimulation index), Mouse 1/3: 5.06
  SI (stimulation index), Mouse 2/3: 2.55
  SI (stimulation index), Mouse 3/3: 0.98
  # of mice responding: 1

## PAKINLARTYIAMED [p34]
[1]
  Recognition of HLA class II peptide by any subject: not recognized by any subject

## GVAYTYNRANAGLPTNK [p45]
[1]
  Highly antigenic / highly reactive peptide in the human cohort: highly antigenic
  Number of IGRA+ subjects recognizing the peptide: 7/56
  Proportion of IGRA+ donors with IFNγ recall response to the peptide, SI cutoff of 2: 12.5%
